Reference: patent publication US20180162862A1 (President and Fellows of Harvard College, priority 2015, published 2018)
In brackets after ≈: the same amount, converted by molar mass.

Tests used:
[1] = system: S. aureus ATCC 29213; test: MIC test according to CLSI M7-A9, S. aureus ATCC 29213; format: cell-based; settings: Staphylococcus aureus, ATCC29213; CLSI M7-A9, CAMHB, 24 h (Table 3); read-out: S. aureus ATCC 29213 MIC
Protocol: (§1) MIC Test (S. aureus ATCC 29213, S. aureus ATCC 43300 and S. aureus Newman)
(§2) Susceptibility testing of S. aureus ATCC 29213, ATCC 43300 and Newman was performed according to Clinical Laboratory Standard Institute (CLSI) guidelines M7-A9. Test articles were stored at room temperature prior to use, then dissolved in filtered sterile DMSO. Stock DMSO solutions were diluted further in cation-adjusted Mueller Hinton broth (CAMHB) to provide appropriate test concentrations. Cultures of S. aureus (ATCC 29213, ATCC 43300 or Newman) were added in accordance with CLSI guidelines and plates incubated at 37° C. in air for 24 h. Endpoints were determined visually (and by spectrophotometer at 600 nm) and the minimum inhibitory concentration (MIC) defined as the lowest concentration of test articles resulting in complete inhibition of visible bacterial growth. Results are detailed in Table 2 (S. aureus ATCC 29213 and ATCC 43300) and Table 3 (S. aureus ATCC 29213, ATCC 43300 and Newman).

[2] = system: S. aureus Newman; test: MIC test according to CLSI M7-A9, S. aureus Newman; format: cell-based; settings: Staphylococcus aureus, CLSI M7-A9, CAMHB, 24 h (Table 3), read-out: S. aureus ATCC Newman MIC
Protocol: as §1, §2

SMILES	MIC [1]	MIC [2]
CC(C)(C)c1ccc(-c2nc(NCCCNC3Cc4ccccc4C3)n3[nH]c(=O)c(Cc4c[nH]cn4)c3n2)cc1 [Example 109, 2-(4-tert-butylphenyl)-4-({3-[(2,3-dihydro-1H-inden-2-yl)amino]propyl}amino)-8-(1H-imidazol-4-ylmethyl)-6H,7H-pyrazolo[1,5-a][1,3,5]triazin-7-one]	4 µg/mL (≈ 7.45 µM)	1 µg/mL (≈ 1.86 µM)
Cc1ccc(Cc2c(=O)[nH]n3c(NCCCNC4Cc5ccccc5C4)nc(-c4ccc(C(C)(C)C)cc4)nc23)cn1 [Example 116, 2-(4-tert-butylphenyl)-4-({3-[(2,3-dihydro-1H-inden-2-yl)amino]propyl}amino)-8-[(6-methylpyridin-3-yl)methyl]-6H,7H-pyrazolo[1,5-a][1,3,5]triazin-7-one]	4 µg/mL (≈ 7.12 µM)	4 µg/mL (≈ 7.12 µM)
CC(C)(C)c1ccc(-c2nc(N3CCN(CCO)CC3)n3[nH]c(=O)cc3n2)cc1 [Example 77, 2-(4-tert-butylphenyl)-4-[4-(2-hydroxyethyl)piperazin-1-yl]-6H,7H-pyrazolo[1,5-a][1,3,5]triazin-7-one]	64 µg/mL (≈ 161 µM)	64 µg/mL (≈ 161 µM)
CC(C)(C)c1nc(NCCCN2CCc3ccccc3C2)n2[nH]c(=O)cc2n1 [Example 97, 2-tert-butyl-4-{[3-(1,2,3,4-tetrahydroisoquinolin-2-yl)propyl]amino}-6H,7H-pyrazolo[1,5-a][1,3,5]triazin-7-one]	128 µg/mL (≈ 336 µM)	64 µg/mL (≈ 168 µM)
CCCCN(CCCC)CCCNc1nc(-c2ccc(C(C)(C)C)cc2)nc2cc(=O)[nH]n12 [Example 78, 2-(4-tert-butylphenyl)-4-{[3-(dibutylamino)propyl]amino}-6H,7H-pyrazolo[1,5-a][1,3,5]triazin-7-one]	32 µg/mL (≈ 70.7 µM)	32 µg/mL (≈ 70.7 µM)
CC(C)(C)c1ccc(-c2nc(NCC(=O)NC3Cc4ccccc4C3)n3[nH]c(=O)cc3n2)cc1 [Example 88, 2-{[2-(4-tert-butylphenyl)-7-oxo-6H,7H-pyrazolo[1,5-a][1,3,5]triazin-4-yl]amino}-N-(2,3-dihydro-1H-inden-2-yl)acetamide]	> 128 µg/mL	128 µg/mL (≈ 280 µM)
O=c1[nH]n2c(NCCCN3CCc4ccccc4C3)nc(C34CC5CC(CC(C5)C3)C4)nc2c1Cc1ccccc1 [Example 124, 2-(adamantan-1-yl)-8-benzyl-4-{[3-(1,2,3,4-tetrahydroisoquinolin-2-yl)propyl]amino}-6H,7H-pyrazolo[1,5-a][1,3,5]triazin-7-one]	128 µg/mL (≈ 233 µM)	2 µg/mL (≈ 3.64 µM)
CC(C)(C)c1ccc(-c2nc(NCCCN3CCCc4ccccc43)n3[nH]c(=O)cc3n2)cc1 [Example 76, 2-(4-tert-butylphenyl)-4-{[3-(1,2,3,4-tetrahydroquinolin-1-yl)propyl]amino}-6H,7H-pyrazolo[1,5-a][1,3,5]triazin-7-one]	4 µg/mL (≈ 8.76 µM)	4 µg/mL (≈ 8.76 µM)
CN(CCCNc1nc(-c2ccc(C(C)(C)C)cc2)nc2cc(=O)[nH]n12)Cc1ccccc1 [Example 98, 4-({3-[benzyl(methyl)amino]propyl}amino)-2-(4-tert-butylphenyl)-6H,7H-pyrazolo[1,5-a][1,3,5]triazin-7-one]	32 µg/mL (≈ 72 µM)	32 µg/mL (≈ 72 µM)
CN(C)CCCNc1nc(-c2ccc(C(C)(C)C)cc2)nc2c(CC34CC5CC(CC(C5)C3)C4)c(=O)[nH]n12 [Example 120, 8-(adamantan-1-ylmethyl)-2-(4-tert-butylphenyl)-4-{[3-(dimethylamino)propyl]amino}-6H,7H-pyrazolo[1,5-a][1,3,5]triazin-7-one]	1 µg/mL (≈ 1.94 µM)	1 µg/mL (≈ 1.94 µM)
CC(C)(C)c1ccc(-c2nc(NCCCN3CCc4ccccc4C3)n3[nH]c(=O)cc3n2)cc1 [Example 91, 2-(4-tert-butylphenyl)-4-{[3-(1,2,3,4-tetrahydroisoquinolin-2-yl)propyl]amino}-6H,7H-pyrazolo[1,5-a][1,3,5]triazin-7-one]	32 µg/mL (≈ 70.1 µM)	16 µg/mL (≈ 35 µM)
CC(C)(C)c1ccc(-c2nc(NCCCO)n3[nH]c(=O)c(CC45CC6CC(CC(C6)C4)C5)c3n2)cc1 [Example 119, 8-(adamantan-1-ylmethyl)-2-(4-tert-butylphenyl)-4-[(3-hydroxypropyl)amino]-6H,7H-pyrazolo[1,5-a][1,3,5]triazin-7-one]	16 µg/mL (≈ 32.7 µM)	16 µg/mL (≈ 32.7 µM)
Cc1ccc(Cc2c(=O)[nH]n3c(NCCCN(C)C)nc(-c4ccc(C(C)(C)C)cc4)nc23)cn1 [Example 114, 2-(4-tert-butylphenyl)-4-{[3-(dimethylamino)propyl]amino}-8-[(6-methylpyridin-3-yl)methyl]-6H,7H-pyrazolo[1,5-a][1,3,5]triazin-7-one]	64 µg/mL (≈ 135 µM)	64 µg/mL (≈ 135 µM)
CC(C)(C)c1ccc(-c2nc(NCCCc3ccccc3)n3[nH]c(=O)c(Cc4c[nH]cn4)c3n2)cc1 [Example 111, 2-(4-tert-butylphenyl)-8-(1H-imidazol-4-ylmethyl)-4-[(3-phenylpropyl)amino]-6H,7H-pyrazolo[1,5-a][1,3,5]triazin-7-one]	4 µg/mL (≈ 8.31 µM)	2 µg/mL (≈ 4.15 µM)
Cc1ccc(Cc2c(=O)[nH]n3c(NCCCN4CCc5ccccc5C4)nc(-c4ccc(C(C)(C)C)cc4)nc23)cn1 [Example 115, 2-(4-tert-butylphenyl)-8-[(6-methylpyridin-3-yl)methyl]-4-[3-(1,2,3,4-tetrahydroisoquinolin-2-yl)propyl]amino-6H,7H-pyrazolo[1,5-a][1,3,5]triazin-7-one]	32 µg/mL (≈ 57 µM)	8 µg/mL (≈ 14.2 µM)
CCCCNc1nc(C(C)(C)C)nc2cc(=O)[nH]n12 [Example 96, 2-tert-butyl-4-(butylamino)-6H,7H-pyrazolo[1,5-a][1,3,5]triazin-7-one]	128 µg/mL (≈ 486 µM)	32 µg/mL (≈ 122 µM)
CC(C)(C)c1ccc(-c2nc(NCCCNC3Cc4ccccc4C3)n3[nH]c(=O)c(Cc4ccccc4)c3n2)cc1 [Example 108, 8-benzyl-2-(4-tert-butylphenyl)-4-({3-[(2,3-dihydro-1H-inden-2-yl)amino]propyl}amino)-6H,7H-pyrazolo[1,5-a][1,3,5]triazin-7-one]	0.5 µg/mL (≈ 0.915 µM)	2 µg/mL (≈ 3.66 µM)
O=c1[nH]n2c(NCCCO)nc(C34CC5CC(CC(C5)C3)C4)nc2c1Cc1ccccc1 [Example 122, 2-(adamantan-1-yl)-8-benzyl-4-[(3-hydroxypropyl)amino]-6H,7H-pyrazolo[1,5-a][1,3,5]triazin-7-one]	8 µg/mL (≈ 18.5 µM)	8 µg/mL (≈ 18.5 µM)
O=c1cc2nc(C34CC5CC(CC(C5)C3)C4)nc(NCCCN3CCc4ccccc4C3)n2[nH]1 [Example 102, 2-(adamantan-1-yl)-4-{[3-(1,2,3,4-tetrahydroisoquinolin-2-yl)propyl]amino}-6H,7H-pyrazolo[1,5-a][1,3,5]triazin-7-one]	64 µg/mL (≈ 140 µM)	16 µg/mL (≈ 34.9 µM)
CC(C)(C)c1ccc(-c2nc(NCc3ccc(C#N)cc3)n3[nH]c(=O)cc3n2)cc1 [Example 84, 4-({[2-(4-tert-butylphenyl)-7-oxo-6H,7H-pyrazolo[1,5-a][1,3,5]triazin-4-yl]amino}methyl)benzonitrile]	16 µg/mL (≈ 40.2 µM)	8 µg/mL (≈ 20.1 µM)
CC(C)(C)c1ccc(-c2nc(NCC3CN(Cc4ccccc4)CCO3)n3[nH]c(=O)cc3n2)cc1 (stereo not drawn) [Example 79, 4-{[(4-benzylmorpholin-2-yl)methyl]amino}-2-(4-tert-butylphenyl)-6H,7H-pyrazolo[1,5-a][1,3,5]triazin-7-one]	32 µg/mL (≈ 67.7 µM)	16 µg/mL (≈ 33.9 µM)
CCCCNc1nc(-c2ccc(C(C)(C)C)cc2)nc2c(Cc3c[nH]cn3)c(=O)[nH]n12 [Example 110, 4-(butylamino)-2-(4-tert-butylphenyl)-8-(1H-imidazol-4-ylmethyl)-6H,7H-pyrazolo[1,5-a][1,3,5]triazin-7-one]	4 µg/mL (≈ 9.53 µM)	2 µg/mL (≈ 4.77 µM)
CC(C)(C)c1ccc(-c2nc3c(CC45CC6CC(CC(C6)C4)C5)c(=O)[nH]n3c(=S)[nH]2)cc1 [Example 118, 8-(adamantan-1-ylmethyl)-2-(4-tert-butylphenyl)-4-sulfanylidene-3H,4H,6H,7H-pyrazolo[1,5-a][1,3,5]triazin-7-one]	8 µg/mL (≈ 17.8 µM)	0.5 µg/mL (≈ 1.11 µM)
Cc1ccc(Cc2c(=O)[nH]n3c(N4CCN(C)CC4)nc(-c4ccc(C(C)(C)C)cc4)nc23)cn1 [Example 117, 2-(4-tert-butylphenyl)-4-(4-methylpiperazin-1-yl)-8-[(6-methylpyridin-3-yl)methyl]-6H,7H-pyrazolo[1,5-a][1,3,5]triazin-7-one]	128 µg/mL (≈ 271 µM)	128 µg/mL (≈ 271 µM)
CC(C)(C)c1nc(NCCCNC2Cc3ccccc3C2)n2[nH]c(=O)cc2n1 [Example 95, 2-tert-butyl-4-({3-[(2,3-dihydro-1H-inden-2-yl)amino]propyl}amino)-6H,7H-pyrazolo[1,5-a][1,3,5]triazin-7-one]	16 µg/mL (≈ 42.1 µM)	8 µg/mL (≈ 21 µM)
Cc1ccc(Cc2c(=O)[nH]n3c(NCCCO)nc(-c4ccc(C(C)(C)C)cc4)nc23)cn1 [Example 113, 2-(4-tert-butylphenyl)-4-[(3-hydroxypropyl)amino]-8-[(6-methylpyridin-3-yl)methyl]-6H,7H-pyrazolo[1,5-a][1,3,5]triazin-7-one]	32 µg/mL (≈ 71.7 µM)	32 µg/mL (≈ 71.7 µM)
CN(C)CCCNc1nc(C23CC4CC(CC(C4)C2)C3)nc2c(Cc3ccccc3)c(=O)[nH]n12 [Example 123, 2-(adamantan-1-yl)-8-benzyl-4-{[3-(dimethylamino)propyl]amino}-6H,7H-pyrazolo[1,5-a][1,3,5]triazin-7-one]	4 µg/mL (≈ 8.68 µM)	4 µg/mL (≈ 8.68 µM)
